Structures are written as SMILES. Values joined by “and” are separate entries in the source; they are usually repeats but may differ in a detail not shown here. Equal entries are not always repeated. Inconclusive results and toxic doses are left out. Peptide text beside a SMILES is read from it.

For this test, the system named is BDF1 mice, B16 melanoma ip, median survival T/C. In words: NCI In Vivo Anticancer Drug Screen. Data for tumor model B16 Melanoma (intraperitoneal) in B6D2F1 (BDF1) mice. Conditions: endpoint: median survival time, higher = longer survival. Put shortly: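 Values are ratios of treated (T) to vehicle-control (C) measurements of survival or tumor size in tumor-bearing mice.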

The mark [1] stands for this setting: dose: 6.25 mg/kg/injection, schedule: Q01DX009 (ip), vehicle: saline with Tween-80.
Setting [2] is: dose: 12.5 mg/kg/injection, schedule: Q01DX009 (ip), vehicle: saline with Tween-80.
[3] abbreviates: dose: 25.0 mg/kg/injection, schedule: Q01DX009 (ip), vehicle: saline with Tween-80.
The mark [4] stands for this setting: dose: 50.0 mg/kg/injection, schedule: Q01DX009 (ip), vehicle: saline with Tween-80.
The mark [5] stands for this setting: dose: 100.0 mg/kg/injection, schedule: Q01DX009 (ip), vehicle: saline with Tween-80.
Where [6] appears, read: dose: 200.0 mg/kg/injection, schedule: Q01DX009 (ip), vehicle: saline with Tween-80.
Setting [7] is: dose: 25.0 mg/kg/injection, schedule: Q01DX009 (ip), vehicle: saline.
The mark [8] stands for this setting: dose: 50.0 mg/kg/injection, schedule: Q01DX009 (ip), vehicle: saline.
Setting [9] is: dose: 100.0 mg/kg/injection, schedule: Q01DX009 (ip), vehicle: saline.
Setting [10] is: dose: 100.0 mg/kg/injection, schedule: Q01DX009 (ip), vehicle: Klucel (hydroxypropylcellulose) (HPC).
[11] abbreviates: dose: 200.0 mg/kg/injection, schedule: Q01DX009 (ip), vehicle: Klucel (hydroxypropylcellulose) (HPC).
Setting [12] is: dose: 50.0 mg/kg/injection, schedule: Q01DX009 (ip), vehicle: Klucel (hydroxypropylcellulose) (HPC).

With `O=S(=O)(O)C1CCC[N-]C1.O=S(=O)(O)C1CCC[N-]C1.[Cl][Pt+2]([Cl])([Cl])[Cl]` (stereo unspecified), the T/C was 110 % of control under setting [1]; 95 % of control under setting [2]; 103 % of control under setting [3]; 106 % of control under setting [4]; 105 % of control under setting [5].
`CCOC(=O)CNC(=O)CCCCSc1ncnc2nc[nH]c12`: the T/C runs as follows: (dose: 20.0 mg/kg/injection, schedule: Q01DX009 (ip), vehicle: Klucel (hydroxypropylcellulose) (HPC)) 88 % of control; (dose: 40.0 mg/kg/injection, schedule: Q01DX009 (ip), vehicle: Klucel (hydroxypropylcellulose) (HPC)) 91 % of control; (dose: 80.0 mg/kg/injection, schedule: Q01DX009 (ip), vehicle: Klucel (hydroxypropylcellulose) (HPC)) 89 % of control; (dose: 160.0 mg/kg/injection, schedule: Q01DX009 (ip), vehicle: Klucel (hydroxypropylcellulose) (HPC)) 89 % of control; (dose: 320.0 mg/kg/injection, schedule: Q01DX009 (ip), vehicle: Klucel (hydroxypropylcellulose) (HPC)) 87 % of control.
Turning to `NC1CC[N-]CC1.NC1CC[N-]CC1.NC1CC[N-]CC1.NC1CC[N-]CC1.[Cl][Rh][Cl]`, the T/C was 103 % of control under setting [1], 101 % of control under setting [2] and 93 % of control under setting [3].
In the case of `N=C(N)c1ccc(/C=C/c2ccc(C(=N)N)cc2)cc1`, the T/C by setting is: (dose: 16.0 mg/kg/injection, schedule: Q01DX009 (ip), vehicle: saline with Tween-80) 98 % of control; (dose: 32.0 mg/kg/injection, schedule: Q01DX009 (ip), vehicle: saline with Tween-80) 93 % of control.
On to `CO[C@H]1C[C@@H]2CC[C@@H](C)[C@@](O)(O2)C(=O)C(=O)N2CCCC[C@H]2C(=O)O[C@H]([C@H](C)C[C@@H]2CC[C@@H](O)[C@H](OC)C2)CC(=O)[C@H](C)C=C(C)[C@@H](O)[C@@H](OC)C(=O)[C@H](C)C[C@H](C)/C=C/C=C/C=C1C`, for which the T/C reads like this: (dose: 190.0 mg/kg/injection, schedule: Q01DX001 (ip), vehicle: saline with Tween-80) 159 % of control; under setting [6], 110 % of control; (dose: 380.0 mg/kg/injection, schedule: Q01DX001 (ip), vehicle: saline with Tween-80) 112 % of control; (dose: 400.0 mg/kg/injection, schedule: Q01DX009 (ip), vehicle: saline with Tween-80) 109 % of control; (dose: 760.0 mg/kg/injection, schedule: Q01DX001 (ip), vehicle: saline with Tween-80) 123 % of control.
Consider `CNCCOc1ccccc1`, for which the T/C was 110 % of control under setting [3], 101 % of control under setting [4] and 101 % of control under setting [5].
Turning to `CCCC(C(=O)O)c1ccccc1C` (stereo unspecified), the T/C is 102 % of control under setting [5]; 99 % of control under setting [6]; 106 % of control (dose: 300.0 mg/kg/injection, schedule: Q01DX009 (ip), vehicle: saline with Tween-80).
Consider `C=C1C/C(=C/C)C(=O)O[C@@H]2CCN3CC=C(COC(=O)[C@]1(C)O)[C@H]23`, for which the T/C is 109 % of control (dose: 12.5 mg/kg/injection, schedule: Q01DX009 (ip), vehicle: saline); 116 % of control under setting [7]; 116 % of control under setting [8]; 107 % of control under setting [9].
Regarding `CNC(=O)Nc1ccc(C)c(Cl)c1`, the T/C reads like this: under setting [10], 105 % of control; under setting [11], 91 % of control.
On to `O=c1cnn(C2OC(CO)C(O)C2O)c(=S)[nH]1` (stereo unspecified), for which the T/C was 93 % of control (dose: 100.0 mg/kg/injection, schedule: Q04DX003 (ip), vehicle: saline with Tween-80); 95 % of control (dose: 200.0 mg/kg/injection, schedule: Q04DX003 (ip), vehicle: saline with Tween-80); 88 % of control (dose: 400.0 mg/kg/injection, schedule: Q04DX003 (ip), vehicle: saline with Tween-80).
In the case of `Cc1ccc([N+](=O)[O-])cc1NC(=O)Oc1ccc(Cl)cc1Cl`, the T/C is 93 % of control under setting [3] and 90 % of control under setting [4].
As for `O=C1/C(=C/c2ccc([N+](=O)[O-])cc2)CCc2ccccc21`, the T/C was 94 % of control (dose: 12.5 mg/kg/injection, schedule: Q01DX009 (ip), vehicle: water); 97 % of control (dose: 25.0 mg/kg/injection, schedule: Q01DX009 (ip), vehicle: water); 92 % of control (dose: 50.0 mg/kg/injection, schedule: Q01DX009 (ip), vehicle: water); 92 % of control (dose: 100.0 mg/kg/injection, schedule: Q01DX009 (ip), vehicle: water).
Consider `CCOc1ccccc1NC(=O)COc1ccc(Cl)cc1`, for which the T/C reads like this: under setting [10], 106 % of control; under setting [11], 96 % of control; (dose: 400.0 mg/kg/injection, schedule: Q01DX009 (ip), vehicle: Klucel (hydroxypropylcellulose) (HPC)) 100 % of control.
With `Nc1nc(=S)c2ncn(C3CC(O)C(CO)O3)c2[nH]1` (stereo unspecified), the T/C is, setting by setting: (dose: 1.25 mg/kg/injection, schedule: Q01DX009 (ip), vehicle: saline with Tween-80) 104 % of control; (dose: 1.25 mg/kg/injection, schedule: Q01DX009 (ip), vehicle: saline) 102 % of control; (dose: 2.5 mg/kg/injection, schedule: Q01DX009 (ip), vehicle: saline with Tween-80) 117 % of control; (dose: 2.5 mg/kg/injection, schedule: Q01DX009 (ip), vehicle: saline) 93 % of control; (dose: 5.0 mg/kg/injection, schedule: Q01DX009 (ip), vehicle: saline with Tween-80) 113 % of control; (dose: 5.0 mg/kg/injection, schedule: Q01DX009 (ip), vehicle: saline) 104 % of control. For the same compound, the T/C is, setting by setting: (dose: 10.0 mg/kg/injection, schedule: Q01DX009 (ip), vehicle: saline) 104 % of control; (dose: 12.5 mg/kg/injection, schedule: Q01DX009 (ip), vehicle: saline sonified) 112 % of control; (dose: 20.0 mg/kg/injection, schedule: Q01DX009 (ip), vehicle: saline) 100 % of control; (dose: 25.0 mg/kg/injection, schedule: Q01DX009 (ip), vehicle: saline sonified) 110 % of control; (dose: 50.0 mg/kg/injection, schedule: Q01DX009 (ip), vehicle: saline sonified) 87 % of control.
On to `c1ccc(-c2cnoc2-c2ccccc2)cc1`, for which the T/C runs as follows: under setting [12], 100 % of control; under setting [10], 107 % of control; under setting [11], 100 % of control.
As for `CS(=O)(=O)OCCN(CCOS(C)(=O)=O)c1ccc(N=O)cc1`, the T/C (dose: 0.1 mg/kg/injection, schedule: Q01DX009 (ip), vehicle: saline) is 150 % of control; the T/C (dose: 0.2 mg/kg/injection, schedule: Q01DX009 (ip), vehicle: saline) is 184 % of control and 204 % of control; the T/C (dose: 0.3 mg/kg/injection, schedule: Q01DX009 (ip), vehicle: saline) was 175 % of control.
With `CC(=O)Nc1ccc2c(c1)Cc1cc(NC=O)ccc1-2`, the T/C was 88 % of control (dose: 0.75 mg/kg/injection, schedule: Q01DX009 (ip), vehicle: Klucel (hydroxypropylcellulose) (HPC)); 93 % of control (dose: 1.5 mg/kg/injection, schedule: Q01DX009 (ip), vehicle: Klucel (hydroxypropylcellulose) (HPC)); 90 % of control (dose: 3.0 mg/kg/injection, schedule: Q01DX009 (ip), vehicle: Klucel (hydroxypropylcellulose) (HPC)).
Take `Cc1ccc(NC(=S)NC(Cc2ccccc2)c2ccccc2)c(C)c1` (stereo unspecified): the T/C was 111 % of control (dose: 12.5 mg/kg/injection, schedule: Q01DX009 (ip), vehicle: Klucel (hydroxypropylcellulose) (HPC)); 109 % of control (dose: 25.0 mg/kg/injection, schedule: Q01DX009 (ip), vehicle: Klucel (hydroxypropylcellulose) (HPC)); 102 % of control under setting [12]; 94 % of control (dose: 75.0 mg/kg/injection, schedule: Q04DX003 (ip), vehicle: Klucel (hydroxypropylcellulose) (HPC)); 88 % of control under setting [10]; 94 % of control (dose: 150.0 mg/kg/injection, schedule: Q04DX003 (ip), vehicle: Klucel (hydroxypropylcellulose) (HPC)). Moreover, under “dose: 300.0 mg/kg/injection, schedule: Q04DX003 (ip), vehicle: Klucel (hydroxypropylcellulose) (HPC)”, the T/C was 102 % of control.
On to `NC(N)=NCCCC(N)C(=O)NC(CCC(=O)O)C(=O)O` (stereo not drawn) (H-Arg-Glu-OH; configuration not given here), for which the T/C was 108 % of control under setting [7]; 96 % of control under setting [8]; 104 % of control under setting [9]; 102 % of control (dose: 200.0 mg/kg/injection, schedule: Q01DX009 (ip), vehicle: saline); 101 % of control (dose: 400.0 mg/kg/injection, schedule: Q01DX009 (ip), vehicle: saline).

(Values after PubChem BioAssay AID192 (DTP/NCI, 2004).)
